According to ChEMBL document CHEMBL1909046, “DrugMatrix in vitro pharmacology data”:

Tests used:
[1] = DRUGMATRIX: Sodium/nucleoside co-transporter radioligand binding (ligand: nitrobenzylthioinosine); format: cell membranes, Cavia porcellus, Dunkin-Hartley, Cerebral cortex, Membrane; settings: Not Active = under 50% inhibition at 10 µM
[2] = DRUGMATRIX: Sigma2 radioligand binding (ligand: [3H] Ifenprodil); format: cell membranes, Rattus norvegicus, Wistar, Brain, Membrane; settings: Not Active = under 50% inhibition at 10 µM
Vasopressin V1a receptor = Vasopressin V1a receptor (Homo sapiens, UniProt P37288); format: cell membranes, Membrane; settings: hek293; further: in other assays of this panel Not Active means under 50% inhibition at 10 µM
[3] = DRUGMATRIX: Glutamate, Kainate radioligand binding (ligand: [3H] Kainic acid); format: cell membranes, Rattus norvegicus, Wistar, Brain, Membrane; settings: Not Active = under 50% inhibition at 10 µM
[4] = DRUGMATRIX: Interleukin IL-1 radioligand binding (ligand: [125I] interleukin 1beta); format: cell membranes, Membrane; settings: nih3t3; Not Active = under 50% inhibition at 10 µM
Nitric oxide synthase 1 = Nitric oxide synthase 1 (Rattus norvegicus, UniProt P29476); format: tissue-based, Cerebellum; further: in other assays of this panel Not Active means under 50% inhibition at 10 µM
[5] = DRUGMATRIX: Platelet-Derived Growth Factor (PDGF) radioligand binding (ligand: [125I] PDGF); format: cell-based; settings: nih3t3; Not Active = under 50% inhibition at 10 µM
Cytochrome P450 2D6 = Cytochrome P450 2D6 (Homo sapiens, UniProt P10635); settings: bti-tn-5b1-4; further: in other assays of this panel Not Active means under 50% inhibition at 10 µM
Estrogen receptor beta = Estrogen receptor beta (Homo sapiens, UniProt Q92731); settings: sf9; further: in other assays of this panel Not Active means under 50% inhibition at 10 µM
Estrogen receptor beta, sequence (Q92731 whole entry): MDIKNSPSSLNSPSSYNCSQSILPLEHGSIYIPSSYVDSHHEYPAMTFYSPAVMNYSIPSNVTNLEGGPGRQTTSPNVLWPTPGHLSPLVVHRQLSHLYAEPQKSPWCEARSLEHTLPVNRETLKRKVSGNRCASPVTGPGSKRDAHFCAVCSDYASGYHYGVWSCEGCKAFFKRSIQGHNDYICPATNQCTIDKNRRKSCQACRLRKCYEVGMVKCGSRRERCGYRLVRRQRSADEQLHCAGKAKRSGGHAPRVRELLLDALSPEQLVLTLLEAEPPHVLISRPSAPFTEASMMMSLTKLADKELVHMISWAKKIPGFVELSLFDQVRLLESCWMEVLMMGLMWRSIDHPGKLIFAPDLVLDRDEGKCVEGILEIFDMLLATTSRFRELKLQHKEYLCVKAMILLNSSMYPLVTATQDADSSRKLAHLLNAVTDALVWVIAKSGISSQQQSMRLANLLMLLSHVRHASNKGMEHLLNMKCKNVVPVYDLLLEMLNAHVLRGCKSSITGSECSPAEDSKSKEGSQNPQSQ

Vasopressin V1a receptor, sequence (P37288 whole entry): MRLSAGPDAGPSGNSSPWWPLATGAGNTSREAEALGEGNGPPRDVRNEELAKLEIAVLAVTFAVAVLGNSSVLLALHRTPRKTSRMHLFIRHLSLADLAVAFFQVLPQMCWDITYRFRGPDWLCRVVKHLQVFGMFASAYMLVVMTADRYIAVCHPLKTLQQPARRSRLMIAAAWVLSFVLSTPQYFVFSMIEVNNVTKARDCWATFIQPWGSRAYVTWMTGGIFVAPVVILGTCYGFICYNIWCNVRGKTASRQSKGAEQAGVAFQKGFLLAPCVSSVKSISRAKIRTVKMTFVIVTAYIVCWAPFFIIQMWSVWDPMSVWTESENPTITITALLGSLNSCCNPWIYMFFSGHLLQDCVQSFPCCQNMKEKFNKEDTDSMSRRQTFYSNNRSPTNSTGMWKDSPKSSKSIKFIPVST
Nitric oxide synthase 1, sequence (P29476 whole entry): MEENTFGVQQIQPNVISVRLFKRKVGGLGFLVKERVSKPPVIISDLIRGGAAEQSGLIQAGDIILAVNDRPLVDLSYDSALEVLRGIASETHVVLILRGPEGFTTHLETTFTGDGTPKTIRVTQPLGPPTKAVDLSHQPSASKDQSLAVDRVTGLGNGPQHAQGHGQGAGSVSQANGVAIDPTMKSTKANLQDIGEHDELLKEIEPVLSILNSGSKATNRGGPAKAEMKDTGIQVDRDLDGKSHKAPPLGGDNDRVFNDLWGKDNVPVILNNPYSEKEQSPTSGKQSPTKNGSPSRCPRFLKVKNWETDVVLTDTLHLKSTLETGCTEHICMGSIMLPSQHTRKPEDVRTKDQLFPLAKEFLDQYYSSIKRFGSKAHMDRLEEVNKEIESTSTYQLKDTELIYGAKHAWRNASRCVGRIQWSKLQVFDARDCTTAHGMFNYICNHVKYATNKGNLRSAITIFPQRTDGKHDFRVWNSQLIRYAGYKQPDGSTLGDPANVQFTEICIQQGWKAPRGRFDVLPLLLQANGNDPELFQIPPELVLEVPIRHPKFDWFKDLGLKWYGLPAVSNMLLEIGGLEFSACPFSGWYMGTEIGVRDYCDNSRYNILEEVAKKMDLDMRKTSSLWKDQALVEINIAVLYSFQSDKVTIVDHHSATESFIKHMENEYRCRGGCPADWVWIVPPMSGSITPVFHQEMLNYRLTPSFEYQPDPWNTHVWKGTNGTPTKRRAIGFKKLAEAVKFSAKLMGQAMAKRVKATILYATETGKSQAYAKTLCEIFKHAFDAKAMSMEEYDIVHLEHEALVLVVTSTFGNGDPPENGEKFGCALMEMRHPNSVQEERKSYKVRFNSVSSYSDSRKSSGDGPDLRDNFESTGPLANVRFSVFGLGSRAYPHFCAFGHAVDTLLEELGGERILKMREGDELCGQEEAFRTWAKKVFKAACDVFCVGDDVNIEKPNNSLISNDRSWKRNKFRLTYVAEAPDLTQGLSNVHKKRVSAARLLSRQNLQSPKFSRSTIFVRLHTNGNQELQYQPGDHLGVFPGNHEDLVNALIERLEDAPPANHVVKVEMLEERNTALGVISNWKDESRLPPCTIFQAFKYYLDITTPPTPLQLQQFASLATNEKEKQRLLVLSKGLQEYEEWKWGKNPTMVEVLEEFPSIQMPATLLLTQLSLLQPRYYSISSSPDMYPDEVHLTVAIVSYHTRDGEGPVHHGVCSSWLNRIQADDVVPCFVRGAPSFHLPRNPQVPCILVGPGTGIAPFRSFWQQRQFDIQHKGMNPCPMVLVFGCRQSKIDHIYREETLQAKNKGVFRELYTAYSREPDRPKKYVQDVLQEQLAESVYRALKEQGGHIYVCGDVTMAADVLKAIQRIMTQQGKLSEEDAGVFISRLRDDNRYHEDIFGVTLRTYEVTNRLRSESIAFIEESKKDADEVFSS
Cytochrome P450 2D6, sequence (P10635 whole entry): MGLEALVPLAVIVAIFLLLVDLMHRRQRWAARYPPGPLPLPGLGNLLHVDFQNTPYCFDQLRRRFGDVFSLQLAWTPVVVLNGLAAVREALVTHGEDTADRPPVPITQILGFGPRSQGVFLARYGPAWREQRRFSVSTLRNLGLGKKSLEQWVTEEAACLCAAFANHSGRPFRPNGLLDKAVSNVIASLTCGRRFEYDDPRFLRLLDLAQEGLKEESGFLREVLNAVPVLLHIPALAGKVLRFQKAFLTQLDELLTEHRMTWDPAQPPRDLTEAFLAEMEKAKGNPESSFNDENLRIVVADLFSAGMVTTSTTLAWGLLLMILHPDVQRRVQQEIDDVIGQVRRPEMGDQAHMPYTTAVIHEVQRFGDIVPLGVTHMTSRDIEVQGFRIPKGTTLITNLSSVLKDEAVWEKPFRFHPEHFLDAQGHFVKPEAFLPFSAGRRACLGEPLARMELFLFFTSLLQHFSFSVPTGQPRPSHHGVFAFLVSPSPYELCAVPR

CCN1CCN(c2cc3c(cc2F)c(=O)c(C(=O)O)cn3C2CC2)CC1 [ENROFLOXACIN]
Not Active: IC50 [1] | Ki [1] | IC50 [2] | Ki [2] | IC50 (Vasopressin V1a receptor) | IC50 [3] | Ki [3] | IC50 [4] | Ki [4] | IC50 (Nitric oxide synthase 1) | IC50 [5] | Ki [5] | IC50 (Cytochrome P450 2D6) | Ki (Cytochrome P450 2D6) | IC50 (Estrogen receptor beta)

C=CCN1CC[C@]23c4c5ccc(O)c4O[C@H]2/C(=N/N=C2\CC[C@@]4(O)[C@H]6Cc7ccc(O)c8c7[C@@]4(CCN6CC=C)[C@H]2O8)CC[C@@]3(O)[C@H]1C5 [NALOXONAZINE]
Not Active: IC50 [1] | Ki [1] | IC50 [2] | Ki [2] | IC50 (Vasopressin V1a receptor) | IC50 [3] | Ki [3] | IC50 [4] | Ki [4] | IC50 (Nitric oxide synthase 1) | IC50 [5] | Ki [5] | IC50 (Cytochrome P450 2D6) | Ki (Cytochrome P450 2D6) | IC50 (Estrogen receptor beta)

OC[C@H]1O[C@@H]2O[C@H]3[C@H](O)[C@@H](O)[C@@H](O[C@H]4[C@H](O)[C@@H](O)[C@@H](O[C@H]5[C@H](O)[C@@H](O)[C@@H](O[C@H]6[C@H](O)[C@@H](O)[C@@H](O[C@H]7[C@H](O)[C@@H](O)[C@@H](O[C@H]1[C@H](O)[C@H]2O)O[C@@H]7CO)O[C@@H]6CO)O[C@@H]5CO)O[C@@H]4CO)O[C@@H]3CO [ALFADEX]
Not Active: IC50 [1] | Ki [1] | IC50 [2] | Ki [2] | IC50 (Vasopressin V1a receptor) | IC50 [3] | Ki [3] | IC50 [4] | Ki [4] | IC50 (Nitric oxide synthase 1) | IC50 [5] | Ki [5] | IC50 (Cytochrome P450 2D6) | Ki (Cytochrome P450 2D6) | IC50 (Estrogen receptor beta)
